Key:
FKBP-14.6 [1] = assay: Saturation binding of [^3 H]-dihydro FK-506 (LH-20 assay, Scatchard and Hill plots); parameters: species or system calf; details: for Kd: saturation, eight concentrations of labeled FK-506 (0.25-12 nM), read-out: Kd, single high affinity binding site
Method: (§1) Binding of [^3 H]-dihydro FK-506 to protein fractions was assessed using the LH-20 assay as described by Handschumacher et al., Science, 226:544 (1984). Briefly, in a final volume of 250 μl, labeled FK-506 (2-5.35 nM in EtOH) and 2-5 μg protein (200 μl) were preliminarily incubated, and the competition reaction begun by the addition of varying concentrations of unlabeled FK-506 or rapamycin. Following 20 minutes at room temperature, a 200 μl aliquot of the reaction mixture was filtered through a 1.8 mL bed-volume Sephadex LH-20 column equilibrated with 20 mM Tris buffer, pH 7.2, containing 5 mM 2-mercaptoethanol and 0.05 % NAN3. Elution with five 250 μL portions of the assay buffer separated protein-bound [^3 H]-dihydro FK-506 from free labeled drug (Sjovall et al., in Giddlings et al., Advances in Chromatography, Marcel Dekker, Inc., N.Y., vol. 6, pp. 119-170 (1968)). Radioactivity in the 1.25 mL eluate was measured by liquid scintillation spectrometry (Optima Gold Scintillation cocktail, Packard Chemicals, Meriden, Conn.) operating at 59% efficiency. Non-specific binding was estimated by the addition of 1 μM unlabeled FK-506, which displaced ≥95% of the bound radioligand from binding sites.
To obtain binding site information for the FKBP-14.6 protein, Scatchard plots were obtained in saturation experiments using eight concentrations of labeled FK-506 (0.25-12 nM) in triplicate (FIG. 4A). In FIG. 4A, specific binding is shown by (-.cndot.-.cndot.-) and non-specific binding by (- - -). Data were analyzed with the EBDA and Ligand Corporation programs.

FKBP-14.6 [2] = assay: Competition binding against [^3 H]-dihydro FK-506 (LH-20 assay); parameters: species or system calf; details: for Kd: 6 nM [^3 H]-dihydro FK-506, rapamycin 0.1 nM-1 μM, 0.2% Tween-20, 50% receptor occupation
Method: as §1
To determine if rapamycin interacted with FK-506's binding site on FKBP-14.6, competition studies were carried out using 6 nM [^3 H]-dihydro FK-506 and 8 concentrations of rapamycin (0.1 nM-1 μM) in a buffer containing 0.2% Tween-20. Unlabeled FK-506 (1 μM) was used to define nonspecific binding.

For C=CC[C@@H]1/C=C(\C)C[C@H](C)C[C@H](OC)[C@H]2O[C@@](O)(C(=O)C(=O)N3CCCC[C@H]3C(=O)O[C@H](/C(C)=C/[C@@H]3CC[C@@H](O)[C@H](OC)C3)[C@H](C)[C@@H](O)CC1=O)[C@H](C)C[C@@H]2OC [FK-506], the “binding site Bmax” value (FKBP-14.6 [1]; Scatchard analysis, purified 14.6 kDa protein) was “about 67 nmoles/mg protein” and the “bound radioligand displaced from binding sites” value (FKBP-14.6 [2]; 1 μM unlabeled FK-506, 20 min) was no less than 95%.

With CO[C@H]1C[C@@H]2CC[C@@H](C)[C@@](O)(O2)C(=O)C(=O)N2CCCC[C@H]2C(=O)O[C@H]([C@H](C)C[C@@H]2CC[C@@H](O)[C@H](OC)C2)CC(=O)[C@H](C)/C=C(\C)[C@@H](O)[C@@H](OC)C(=O)[C@H](C)C[C@H](C)/C=C/C=C/C=C/1C [Rapamycin] the “displacement of [^3 H]-dihydro FK-506 (manner)” value (FKBP-14.6 [2]; 6 nM [^3 H]-dihydro FK-506, 8 concentrations of rapamycin) was “biphasic manner”, the Kd (FKBP-14.6 [2]; read-out: Kd, high affinity binding site) was 0.023 nM and the Kd (FKBP-14.6 [2]; read-out: Kd, low affinity binding site) was 226 nM.

Work on CCC[C@@H]1/C=C(\C)C[C@H](C)C[C@H](OC)[C@H]2O[C@@](O)(C(=O)C(=O)N3CCCC[C@H]3C(=O)O[C@H](/C(C)=C/[C@@H]3CC[C@@H](O)[C@H](OC)C3)[C@H](C)[C@@H](O)CC1=O)[C@H](C)C[C@@H]2OC [[^3 H]-dihydro FK-506] yielded a Kd (FKBP-14.6 [1]; purified 14.6 kDa protein, listed as [^3 H]-FK-506) of roughly 1.77 nM and a Kd (FKBP-14.6 [1]; purified 14.6 kDa protein) of 1.77 nM.

With [3H]CC([3H])C[C@@H]1/C=C(\C)C[C@H](C)C[C@H](OC)[C@H]2O[C@@](O)(C(=O)C(=O)N3CCCC[C@H]3C(=O)O[C@H](/C(C)=C/[C@@H]3CC[C@@H](O)[C@H](OC)C3)[C@H](C)[C@@H](O)CC1=O)[C@H](C)C[C@@H]2OC (some centres unmarked) [[^3 H]-dihydro FK-506] the Hill coefficients (FKBP-14.6 [1]; saturation experiments, single class of binding sites) was “near unity”.
